Data: ChEMBL document CHEMBL4177698, “Discovery and in vivo effects of novel human natriuretic peptide receptor A (NPR-A) agonists with improved activity for rat NPR-A” (Bioorg Med Chem, 2017)
Activity calls are given as the source filed them. The calls are words filed in the database; no cut-off is given here.

Legend:
[1] = target: T1, Atrial natriuretic peptide receptor 1 (Homo sapiens, UniProt P16066); test: Agonist activity at human NPR-A expressed in CHO cells assessed as increase in cGMP accumulation after 30 mins by radioimmunoassay; format: cell-based
T1 sequence (P16066 whole entry): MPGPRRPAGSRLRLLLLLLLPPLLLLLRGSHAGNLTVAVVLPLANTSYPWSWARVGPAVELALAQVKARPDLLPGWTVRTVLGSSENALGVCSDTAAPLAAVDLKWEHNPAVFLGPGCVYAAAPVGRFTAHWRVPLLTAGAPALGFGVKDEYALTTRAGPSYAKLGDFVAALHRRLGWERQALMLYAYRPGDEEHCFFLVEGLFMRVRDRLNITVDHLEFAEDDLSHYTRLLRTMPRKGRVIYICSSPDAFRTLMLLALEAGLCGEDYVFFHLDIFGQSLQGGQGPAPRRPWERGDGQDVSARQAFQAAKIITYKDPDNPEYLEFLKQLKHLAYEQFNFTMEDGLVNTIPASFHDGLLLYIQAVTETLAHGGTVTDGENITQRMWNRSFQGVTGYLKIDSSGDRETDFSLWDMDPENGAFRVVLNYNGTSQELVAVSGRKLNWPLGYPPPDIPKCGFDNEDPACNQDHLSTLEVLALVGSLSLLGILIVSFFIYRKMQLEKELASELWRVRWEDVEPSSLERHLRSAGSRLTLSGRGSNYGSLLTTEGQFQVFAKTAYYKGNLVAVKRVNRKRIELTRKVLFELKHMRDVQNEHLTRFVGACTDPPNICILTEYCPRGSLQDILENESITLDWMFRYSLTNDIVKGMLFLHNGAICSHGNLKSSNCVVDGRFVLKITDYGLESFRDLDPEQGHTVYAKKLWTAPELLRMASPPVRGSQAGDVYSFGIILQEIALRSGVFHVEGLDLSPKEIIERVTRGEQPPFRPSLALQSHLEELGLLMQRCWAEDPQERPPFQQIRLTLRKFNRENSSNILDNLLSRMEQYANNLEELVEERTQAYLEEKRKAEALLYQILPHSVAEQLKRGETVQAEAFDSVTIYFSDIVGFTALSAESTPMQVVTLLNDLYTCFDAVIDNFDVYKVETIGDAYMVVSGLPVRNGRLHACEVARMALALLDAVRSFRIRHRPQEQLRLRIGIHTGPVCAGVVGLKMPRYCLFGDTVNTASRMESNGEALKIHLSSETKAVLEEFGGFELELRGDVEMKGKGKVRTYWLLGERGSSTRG

[2] = target: T2, Atrial natriuretic peptide receptor 1 (Rattus norvegicus, UniProt P18910); test: Agonist activity at rat NPR-A expressed in CHO cells assessed as increase in cGMP accumulation after 15 mins by fluorescent assay; format: cell-based
T2 sequence (P18910 whole entry): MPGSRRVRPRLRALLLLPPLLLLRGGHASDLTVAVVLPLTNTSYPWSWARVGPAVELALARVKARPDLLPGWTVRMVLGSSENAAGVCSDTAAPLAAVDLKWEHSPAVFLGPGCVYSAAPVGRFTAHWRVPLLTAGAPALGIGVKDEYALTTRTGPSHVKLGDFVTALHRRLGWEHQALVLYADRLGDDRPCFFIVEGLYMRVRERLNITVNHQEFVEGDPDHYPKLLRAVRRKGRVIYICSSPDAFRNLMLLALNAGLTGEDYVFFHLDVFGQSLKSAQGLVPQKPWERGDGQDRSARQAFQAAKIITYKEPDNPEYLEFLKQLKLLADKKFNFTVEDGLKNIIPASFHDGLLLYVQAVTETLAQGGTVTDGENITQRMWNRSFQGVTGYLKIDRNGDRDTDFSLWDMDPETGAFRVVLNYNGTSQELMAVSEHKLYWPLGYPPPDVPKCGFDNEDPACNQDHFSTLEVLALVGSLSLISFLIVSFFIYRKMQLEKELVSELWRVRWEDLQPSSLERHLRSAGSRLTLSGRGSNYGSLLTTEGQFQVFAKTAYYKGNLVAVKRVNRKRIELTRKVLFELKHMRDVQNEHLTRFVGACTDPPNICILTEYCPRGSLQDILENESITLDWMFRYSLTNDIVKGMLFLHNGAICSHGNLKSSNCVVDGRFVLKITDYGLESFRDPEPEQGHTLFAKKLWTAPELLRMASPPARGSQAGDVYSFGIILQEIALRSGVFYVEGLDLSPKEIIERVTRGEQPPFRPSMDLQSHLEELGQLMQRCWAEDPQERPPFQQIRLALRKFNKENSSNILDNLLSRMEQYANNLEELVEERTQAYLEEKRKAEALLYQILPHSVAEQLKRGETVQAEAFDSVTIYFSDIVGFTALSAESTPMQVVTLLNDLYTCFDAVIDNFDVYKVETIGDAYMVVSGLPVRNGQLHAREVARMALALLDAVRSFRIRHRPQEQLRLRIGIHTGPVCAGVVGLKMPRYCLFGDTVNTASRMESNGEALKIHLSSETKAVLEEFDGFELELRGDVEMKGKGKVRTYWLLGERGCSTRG

Rattus norvegicus [3] = test: In vivo agonist activity at NPR-A in Crl:CD(SD) rat assessed as increase in cGMP accumulation in plasma at 1 mg/kg/min, iv administered via infusion for 15 mins measured after 30 mins by radioimmunoassay; format: functional, organism-based
Rattus norvegicus [4] = test: In vivo agonist activity at NPR-A in Crl:CD(SD) rat assessed as increase in cGMP accumulation in lungs at 1 mg/kg/min; format: functional, organism-based
Rattus norvegicus [5] = test: In vivo agonist activity at NPR-A in Crl:CD(SD) rat assessed as increase in cGMP accumulation in heart at 1 mg/kg/min; format: functional, organism-based
Rattus norvegicus [6] = test: Diuretic activity in Crl:CD(SD) rat assessed as increase in urine volume at 1 mg/kg/min, iv administered as infusion over 30 mins measured after 20 mins post dose; format: functional, organism-based
Rattus norvegicus [7] = test: Diuretic activity in Crl:CD(SD) rat assessed as increase in urine volume at 1 mg/kg/min, iv administered as infusion over 30 mins measured after 40 mins post dose; format: functional, organism-based

SMILES	EC50 [1] [nM]	EC50 [2] [nM]	also measured
CC(C)NC(=O)N[C@H]1CC[C@@H](Nc2nc(NC(C)C)nc3ccc(-c4cccc(F)c4)cc23)CC1	1500	420	–
CC(C)[C@@H](CO)NC(=O)N[C@H]1CC[C@@H](Nc2nc(N[C@H](C)CO)nc3ccc(-c4cccc(F)c4)cc23)CC1	41	330	–
CC(C)Nc1nc(N[C@H]2CC[C@@H](NC(=O)N(C)C(C)C)CC2)c2cc(-c3cccc(F)c3)ccc2n1	4000	3000	–
C[C@H](CO)Nc1nc(N[C@H]2CC[C@H](NC(=O)N3CC(O)C3)CC2)c2cc(-c3cccc(F)c3)ccc2n1	420	900	–
C[C@H](CO)Nc1nc(N[C@H]2CC[C@@H](NC(=O)NC3(CO)CCCC3)CC2)c2cc(-c3cccc(F)c3)ccc2n1	78	120	–
C[C@H](CO)Nc1nc(N[C@H]2CC[C@H](NC(=O)[C@H]3C[C@H](O)C3)CC2)c2cc(-c3cccc(F)c3)ccc2n1	470	700	–
C[C@H](CO)Nc1nc(N[C@H]2CC[C@H](NC(=O)[C@H]3C[C@H](O)C3)CC2)c2cc(-c3ccccc3)ccc2n1	900	1800	–
CC(C)Nc1nc(N[C@H]2CC[C@@H](NC(=O)N[C@@H](CO)C(C)C)CC2)c2cc(-c3cccc(F)c3)cnc2n1	98	43	Activity (Rattus norvegicus [3]): Active
CC(C)N[C@H]1C[C@H](C(=O)N[C@H]2CC[C@H](Nc3nc(N[C@H](C)CO)nc4ccc(-c5ccccc5)cc34)CC2)C1	320	2000	–
CC(C)[C@H](CO)NC(=O)N[C@H]1CC[C@@H](Nc2nc(N[C@H](C)CO)nc3cnc(-c4cccc(F)c4)cc23)CC1	620	130	–
C[C@H](CO)Nc1nc(N[C@H]2CC[C@@H](NC(=O)NC3CC3)CC2)c2cc(-c3cccc(F)c3)ccc2n1	330	180	–
COC[C@@H](C)Nc1nc(N[C@H]2CC[C@@H](NC(=O)NC(C)C)CC2)c2cc(-c3cccc(F)c3)ccc2n1	200	160	–
CC(C)[C@H](CO)NC(=O)N[C@H]1CC[C@@H](Nc2nc(N[C@H](C)CO)nc3ccc(-c4cccc(F)c4)cc23)CC1	71	65	Activity (Rattus norvegicus [3]): Active
C[C@H](CO)Nc1nc(N[C@H]2CC[C@@H](NC(=O)NC3CCCN(C)C3)CC2)c2cc(-c3cccc(F)c3)ccc2n1 (stereo partly specified)	780	3200	–
COC[C@@H](C)Nc1nc(N[C@H]2CC[C@@H](NC(=O)NC3CC3)CC2)c2cc(-c3cccc(F)c3)ccc2n1	340	270	–
CC(C)[C@H](CO)NC(=O)N[C@H]1CC[C@@H](Nc2nc(N[C@H](C)CO)nc3ncc(-c4cccc(F)c4)cc23)CC1	110	62	Activity (Rattus norvegicus [3]): Active; Activity (Rattus norvegicus [4]): Active; Activity (Rattus norvegicus [5]): Active; Activity (Rattus norvegicus [6]): Active; Activity (Rattus norvegicus [7]): Active
CC(C)NC(=O)N[C@H]1CC[C@@H](Nc2nc(N(C)CCO)nc3ccc(-c4cccc(F)c4)cc23)CC1	720	2100	–
C[C@H](CO)Nc1nc(N[C@H]2CC[C@@H](NC(=O)NC(C)(C)CO)CC2)c2cc(-c3cccc(F)c3)ccc2n1	220	66	Activity (Rattus norvegicus [3]): Active
COC[C@H](C)Nc1nc(N[C@H]2CC[C@@H](NC(=O)NC3CC3)CC2)c2cc(-c3cccc(F)c3)ccc2n1	850	1800	–
COC[C@@H](C)Nc1nc(N[C@H]2CC[C@@H](NC(=O)NC(C)C)CC2)c2nc(-c3cccc(F)c3)ccc2n1	4000	1600	–
CC(C)NC(=O)N[C@H]1CC[C@@H](Nc2nc(N[C@H](C)CO)nc3ccc(-c4cccc(F)c4)cc23)CC1	320	74	–
COCCNc1nc(N[C@H]2CC[C@@H](NC(=O)NC(C)C)CC2)c2cc(-c3cccc(F)c3)ccc2n1	380	610	–
CC(C)NC(=O)N[C@H]1CC[C@H](Nc2nc(N[C@H](C)CO)nc3ccc(-c4cccc(F)c4)cc23)CC1	460	530	–
CC(C)Nc1nc(N[C@H]2CC[C@@H](NC(=O)N[C@@H](CO)C(C)C)CC2)c2cc(-c3cccc(F)c3)ccc2n1	1000	290	–
